IC50 and half-life data for one compound are collected here from PMC10928712, “High Target Homology Does Not Guarantee Inhibition: Aminothiazoles Emerge as Inhibitors of Plasmodium falciparum” (ACS Infectious Diseases, 2024).

One series relates to P. falciparum NF54. The series is described as follows: IDP rescue assay, P. falciparum NF54. The series is classed as cell-based. The settings on record: Plasmodium falciparum. How it is done: Fidock (Columbia University). […] P. falciparum cultures were treated as described in method II. For IDP (Isoprenoids.com) rescue experiments, 125 μM IDP was added to the appropriate wells for the duration of the experiment. The well-described DXR inhibitor FSM was used as a positive control. IC50 values were calculated by nonlinear regression analysis using GraphPad Prism software. All experiments were performed at least in triplicate, and data reported represent the mean ± SD.

A short description of series [1]: Metabolic stability in human liver S9 fraction. The series is classed as in vitro ADME. The following applies: human, pooled liver S9 fraction, 1 μM compound. How it is done: For the evaluation of combined phase I and phase II metabolic stability, the compound (1 μM) was incubated with 1 mg/mL pooled liver S9 fraction (XenoTech), 2 mM NADPH, 1 mM UDPGA, 10 mM MgCl2, 5 mM GSH, and 0.1 mM PAPS at 37 °C for 0, 5, 15, 30, and 60 min. The metabolic stabilities of testosterone (1 μM), verapamil (1 μM), and propranolol (1 μM) were determined in parallel to confirm the enzymatic activity of the S9 fraction. The incubation was stopped by precipitation of S9 enzymes with two volumes of cold acetonitrile containing internal standard (150 nM diphenhydramine). Samples were stored on ice for 10 min, and precipitated protein was removed by centrifugation (15 min, 4 °C, 4000 rpm). The concentration of the remaining test compound at the different time points was analyzed by LC-MS/MS (TSQ Quantum Access MAX, Thermo Fisher, Dreieich, Germany) and used to determine half-life (t1/2).

The next series deals with P. falciparum 3D7. As to the kind of experiment: Method III growth inhibition assay (HRP2-ELISA, 3 days), 3D7. In kind it is cell-based, Plasmodium falciparum. The settings on record: Plasmodium falciparum, 3D7, 3D7, method III (HRP2 assay), drc package of R; read-out: IC50 P. falciparum 3D7 (method III). On the technique in general: An ELISA detects its analyte on a solid surface through an enzyme-linked reagent.

The test system of a further series is P. falciparum 3D7-TPK+. As to the kind of experiment: Growth inhibition of PfTPK overexpressing parasites (3D7-TPK+). The following applies: Plasmodium falciparum, 3D7, read-out: PfTPK IC50. In kind it is cell-based. How it is done: P. falciparum cultures were treated as described in method I. For target specification toward PfTPK and PfDXPS, compounds were tested in comparison against overexpressing cell lines and the respective MOCK line containing only the transfected vector backbone. Parasite viability/proliferation was determined. Analysis of the IC50 values and interpretation of the curves was performed, as described in Section 4.1.2.44.
eq 1: Fluorescence data normalization [drawing 2] where y is the fluorescence signal in each well, yminimum is the background fluorescence, and ymaximum is the highest measured fluorescence signal in the untreated wells. Drug concentrations (in μM) were transformed to the log(10)of the values. Means of each independent experiment were plotted as individual values, and the SD of the mean from the means shown as error bars. […] In case of transgenic cell lines, the built-in comparison Akaike’s information criteria (AICc) method was applied to the Log IC50s of the different cell lines. The test calculates a percentage probability of the simpler model “Log IC50 is the same for datasets” being correct. The test for homoscedasticity was performed to confirm if no weighting of values was appropriate.

A word on the IC50: it is the point on the concentration scale where inhibition reaches its midpoint. For orientation: half-life means the time needed for the level to fall by half in the phase considered. High values mean slow loss, low ones fast loss. Take `Cc1nc(N)sc1-c1csc(Nc2ccc(C(F)(F)F)cc2)n1` [compound 1]: the IC50 came to 500 nM in the series on P. falciparum NF54 (NF54, 72 h, + IDP (125 μM)); 800 ± 100 nM in the series with P. falciparum NF54 (NF54, without IDP); 600 ± 200 nM in the series with P. falciparum 3D7; 1760 nM in the series on P. falciparum 3D7-TPK+. The compound also yielded a half-life at 1 μM in series [1] greater than 240 min.
